Paper PMC9114115, “Property space mapping of Pseudomonas aeruginosa permeability to small molecules” (Scientific Reports, 2022)
Values joined by “and” are separate entries in the source; they are usually repeats but may differ in a detail not shown here. Identical values can stand only once. Counter-ions that a name gives are not always drawn. Like-named read-outs stand apart in the source and are kept apart here.

Assays:
[1] = system: P. aeruginosa PΔ3-Pore cells; test: LC–MS quantification of intracellular accumulation, PΔ3-Pore; conditions: 10-80 µM; for Concentration slopes of accumulation, PΔ3-Pore_1 min: 1 min incubation; for Concentration slopes of accumulation, PΔ3-Pore_40min: 40 min incubation;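 for all read-outs here: slope of accumulation versus external concentration fitted as a line through zero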
Protocol: (§1) PAO1-Pore and PΔ3-Pore were grown at 37 °C overnight with shaking at 225 rpm in 50 mM MOPS-M9 (pH 7.2) Minimal Medium supplemented with 1% glycerol[42],[43].
(§2) The next day, cells were sub-cultured (1.5:100) in fresh MOPS-M9 medium and grown for 16 h. The cultures were then split into two flasks and one of them was induced with 0.1 mM IPTG. Cells incubated for additional 4 h until OD600 reached ~ 1.0 and harvested by centrifugation at 3,275xg for 20 min in RT, washed and concentrated 10X in the spent medium. Assays were performed in 96-well plates in a final volume of […]. Cells were incubated with 10, 20, 40, 80 µM of compounds and after 1- and 40-min incubation at RT, 100 µL cell aliquots were collected by vacuum filtration onto 1.0 µm Glass Fiber Type B filters. For no-cell controls, compounds were diluted to 10, 20, 40, 80 µM final concentration in the same medium, incubated for 1 min and 40 min and filtered onto the same plates. The cell loaded and cell-free filters were dried, removed from plates and placed into 100% methanol at -80 °C for at least 10 min. Filter-bound material was extracted by water bath sonication for 1 min. Cell and filter debris were separated by ultracentrifugation at 45,000 rpm (TLA55 rotor, Beckman) for 8 min at 16 °C and the pellet re-extracted with 80% methanol in water by sonication for 15 min followed by ultracentrifugation at the same conditions. Supernatants from two extractions were combined. For the compound quantification, 5 µL of solution was analyzed in triplicate.
(§3) Calibration curves for MS analyses of compounds were generated in the same experiment by mixing compound at increasing concentrations with the sonicated PAO1 cell extracts. […] Azithromycin was used as a positive control in all experiments.
(§4) Samples were processed in positive ion mode. An Eclipse plus C18 Rapid Resolution HD column (1.8 μm, 2.1 × 50 mm, Agilent, USA) was used for separation. The flow rate was 0.6 mL/min using the following gradient: 0 to 1 min (0- 20% ACN), 1 to 4 min (20- 80% ACN), 4 to 5.1 min (80–100% ACN), 5.1 to 6.30 (100% ACN). Solvents contained 0.1% formic acid to promote positive ion formation in the electrospray. […] Data were analyzed using Agilent Masshunter workstation quantitative analysis v. B.10 software.

P. aeruginosa PAO1-Pore = test: MIC by two-fold dilution, hyperporinated PAO1-Pore; format: cell-based, Pseudomonas aeruginosa; conditions: for MICs: PAO1-Pore, LB broth, Table S2; for MIC: Pseudomonas aeruginosa, PAO1, read-out: MICs
Protocol: (§5) In all experiments, P. aeruginosa PAO1-Pore (PAO1 attTn7::PLAC-fhuA) and PΔ3-Pore (ΔmexAB ΔmexCD ΔmexXY attTn7::PLAC-fhuA) strains were used[29]. Strains were routinely grown in Luria–Bertani (LB) or MOPS-M9 medium at 37 °C with aeration. MICs shown in Tables 1 and 2 were determined by a two-fold dilution method in LB broth and MOPS-M9 medium, respectively, following the previously described protocol.

P. aeruginosa PΔ3 cells = conditions: 10-80 µM; for Concentration slopes of accumulation, PΔ3_1 min: 1 min incubation; for Concentration slopes of accumulation, PΔ3_40 min: 40 min incubation;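 for all read-outs here: slope of accumulation versus external concentration fitted as a line through zero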
Protocol: as §1, §2, §3, §4

P. aeruginosa PAO1 cells = test: LC–MS quantification of intracellular accumulation, PAO1; conditions: 10-80 µM; for Concentration slopes of accumulation, PAO1_1 min: 1 min incubation; for Concentration slopes of accumulation, PAO1_40 min: 40 min incubation;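 for all read-outs here: slope of accumulation versus external concentration fitted as a line through zero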
Protocol: as §1, §2, §3, §4

P. aeruginosa PΔ3 = test: microbe, parasite or virus in culture; format: cell-based, Pseudomonas aeruginosa; conditions: Pseudomonas aeruginosa, read-out: MICs
Protocol: as §5

P. aeruginosa PΔ3-Pore = test: MIC by two-fold dilution, barrierless PΔ3-Pore; format: cell-based, Pseudomonas aeruginosa; conditions: for MIC: Pseudomonas aeruginosa, read-out: MICs, P∆3-Pore, MOPS-M9 medium; for MICs: P∆3-Pore, LB broth, Table S2
Protocol: as §5

P. aeruginosa PAO1 = test: MIC by two-fold dilution, wild type PAO1; format: cell-based, Pseudomonas aeruginosa; conditions: Pseudomonas aeruginosa
Protocol: as §5

[2] = system: P. aeruginosa PAO1-Pore cells; test: LC–MS quantification of intracellular accumulation, PAO1-Pore; conditions: 10-80 µM; for Concentration slopes of accumulation, PAO1-Pore_1 min: 1 min incubation; for Concentration slopes of accumulation, PAO1-Pore_40 min: 40 min incubation;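 for all read-outs here: slope of accumulation versus external concentration fitted as a line through zero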
Protocol: as §1, §2, §3, §4

[3] = PAO1, MOPS-M9 medium, read-out: MICs

| SMILES | Concentration slopes of accumulation, PΔ3-Pore_1 min [1] | Concentration slopes of accumulation, PΔ3-Pore_40min [1] | MICs (P. aeruginosa PAO1-Pore) | MIC (P. aeruginosa PAO1-Pore) | Concentration slopes of accumulation, PΔ3_1 min (P. aeruginosa PΔ3 cells) | Concentration slopes of accumulation, PΔ3_40 min (P. aeruginosa PΔ3 cells) | Concentration slopes of accumulation, PAO1_1 min (P. aeruginosa PAO1 cells) | Concentration slopes of accumulation, PAO1_40 min (P. aeruginosa PAO1 cells) | MIC (P. aeruginosa PΔ3) | MIC (P. aeruginosa PΔ3-Pore) | MICs (P. aeruginosa PΔ3-Pore) | MIC (P. aeruginosa PAO1; [3]) | Concentration slopes of accumulation, PAO1-Pore_1 min [2] | Concentration slopes of accumulation, PAO1-Pore_40 min [2] | MIC (P. aeruginosa PAO1; PAO1, read-out: MICs) |
| --- | --- | --- | --- | --- | --- | --- | --- | --- | --- | --- | --- | --- | --- | --- | --- |
| CC1CCc2c(N3CCC(O)CC3)c(F)cc3c(=O)c(C(=O)O)cn1c23 (centres unmarked) [OU-0000628, nadifloxacin] | 19.74 | 19.09 | 0.39 | 0.0625 µM and 0.02 µg/mL | 9.00 | 9.79 | 6.36 | 6.93 | 0.625 µM and 0.23 µg/mL | 0.0156 µM and 0.01 µg/mL | 0.0015 | 5 µM and 1.8 µg/mL | 11.41 | 12.74 |  |
| Nc1ccc(S(=O)(=O)Nc2ccnn2-c2ccccc2)cc1 [Sulfaphenazole] |  |  |  | 12.5 µM and 3.9 µg/mL |  |  |  |  | 200 µM and 62.9 µg/mL | 3.2 µM and 1 µg/mL |  | > 200 µM and > 62.9 µg/mL |  |  |  |
| COc1cccc2c1C(=O)c1c(O)c3c(c(O)c1C2=O)C[C@@](O)(C(=O)CO)C[C@@H]3O[C@H]1C[C@H](N)[C@H](O)[C@H](C)O1 [OU-0000835, Doxorubicin] | 1.89 | 2.13 | 100 | 12.5 µM and 6.8 µg/mL | 1.32 | 1.10 | 1.38 | 0.84 | 25 µM and 13.6 µg/mL | 3.2 µM and 1.7 µg/mL | 25 | 200 µM and 109 µg/mL | 3.78 |  |  |
| COc1cc(NS(=O)(=O)c2ccc(N)cc2)nc(OC)n1 [Sulfadimethoxine] |  |  |  | 25 µM and 7.8 µg/mL |  |  |  |  | 200 µM and 62.1 µg/mL | 1.6 µM and 0.5 µg/mL |  |  |  |  | > 200 µM and 62.1 µg/mL |
| CCn1cc(C(=O)O)c(=O)c2cc(F)c(N3CCN(C)CC3)cc21 [OU-0000619, PEFLOXACINE MESYLATE] | 32.20 | 39.09 | 0.25 | 0.25 µM and 0.11 µg/mL | 21.54 | 34.80 | 14.50 | 14.54 |  | 0.03 µg/mL | 0.0039 | 2 µM and 0.9 µg/mL | 25.74 | 33.41 |  |
| Cc1noc(NS(=O)(=O)c2ccc(N)cc2)c1C [Sulfisoxazole] |  |  |  | > 200 µM |  |  |  |  | > 200 µM | > 200 µM |  | > 200 µM and > 53.7 µg/mL |  |  |  |
| C[C@H]1COc2c(N3CCN(C)CC3)c(F)cc3c(=O)c(C(=O)O)cn1c23 [OU-0000806, Levofloxacin] | 3.52 | 5.77 | 0.25 | 0.031 µM and 0.011 µg/mL | 2.43 | 5.63 | 3.66 | 5.59 | 0.25 µM and 0.2 µg/mL | 0.008 µM and 0.003 µg/mL | 0.0039 | 0.5 µM and 0.18 µg/mL | 6.98 | 7.94 |  |
| CCN1CCN(c2cc3c(cc2F)c(=O)c(C(=O)O)cn3C2CC2)CC1 [OU-0000620, ENROFLOXACIN] | 26.71 | 29.82 | 0.25 | 0.0625 µM and 0.02 µg/mL | 14.05 | 13.99 | 18.49 | 16.52 | 0.5 µM and 0.18 µg/mL | 0.016 µM and 0.01 µg/mL | 0.0039 | 2 µM and 0.7 µg/mL | 26.71 | 27.91 |  |
| COc1cnc(NS(=O)(=O)c2ccc(N)cc2)nc1 [OU-0000694] | 3.61 | 3.14 |  | 12.5 µM and 3.5 µg/mL | 0.87 | 1.82 | 2.18 | 1.74 | 25 µM and 7 µg/mL | 6.25 µM and 1.75 µg/mL |  |  | 3.10 | 2.35 | > 200 µM and > 56.1 µg/mL |
| CCn1cc(C(=O)O)c(=O)c2cc3c(cc21)OCO3 [OU-0000621, OXOLINIC ACID] | 8.75 | 6.70 | 6.25 | 0.625 µM and 0.16 µg/mL | 5.83 | 6.58 | 5.93 | 6.11 | 2.5 µM and 0.65 µg/mL | 0.078 µM and 0.02 µg/mL | 0.097 | 20 µM and 5.2 µg/mL | 8.17 | 6.63 |  |
| Nc1ccc(S(=O)(=O)Nc2nccs2)cc1 [Sulfathiazole] |  |  |  | 3.2 µM and 0.8 µg/mL |  |  |  |  | 6.25 µM and 1.6 µg/mL | 1.6 µM and 0.4 µg/mL |  | 50 µM and 12.8 µg/mL |  |  |  |
